What was measured:
[1] = system: Stenotrophomonas nitritireducens KACC 10891T; assay: antibacterial test, paper disc diffusion method; format: cell-based; details: paper disc (diameter 8 mm) wetted with 60 μL of 1 mg/mL sample in DMSO on agar plate; test repeated three times
Procedure: (§1) An antibacterial test was carried out using the above-mentioned paper disc diffusion method. Betulonic acid amide was dissolved in DMSO to make a sample having a concentration of 1 mg/mL. A filter paper (diameter: 8 mm, manufactured by Advantec, Toyo Roshi Kaisha, Japan) wetted with 60 μL of the sample was attached to an agar plate, and then a circumference, around which bacteria were not cultivated, was measured. DMSO was used as a negative control, and gentamicin was used as a positive control. The antibacterial test was repeatedly carried out three times.

[2] = system: Ochrobactrum intermedium KACC 11952T; assay: antibacterial test, paper disc diffusion method; format: cell-based; details: paper disc (diameter 8 mm) wetted with 60 μL of 1 mg/mL sample in DMSO on agar plate, test repeated three times
Procedure: as §1

[3] = system: Stenotrophomonas maltophilia KCTC 1773T; assay: antibacterial test, paper disc diffusion method; format: cell-based; details: for Antibacterial zone of inhibition (mm) S. maltophila: paper disc (diameter 8 mm) wetted with 60 μL of 1 mg/mL sample in DMSO on agar plate, test repeated three times
Procedure: as §1

[4] = system: Ochrobactrum anthropi KCTC 22833T; assay: antibacterial test, paper disc diffusion method; format: cell-based; details: paper disc (diameter 8 mm) wetted with 60 μL of 1 mg/mL sample in DMSO on agar plate, test repeated three times
Procedure: as §1

four kinds of bacteria = assay: antibacterial test, paper disc diffusion method, all strains; format: cell-based; details: from Table 3, 1 mg/mL sample
Procedure: An antibacterial test was carried out using the above-mentioned paper disc diffusion method. Betulonic acid amide was dissolved in DMSO to make a sample having a concentration of 1 mg/mL. A filter paper (diameter: 8 mm, manufactured by Advantec, Toyo Roshi Kaisha, Japan) wetted with 60 μL of the sample was attached to an agar plate, and then a circumference, around which bacteria were not cultivated, was measured. DMSO was used as a negative control, and gentamicin was used as a positive control. The antibacterial test was repeatedly carried out three times. Ochrobactrum anthropi KCTC 22833T and Stenotrophomonas maltophilia KCTC 1773T used in the antibacterial test were purchased from Korean Collection for Type Culture (KCTC), and Ochrobactrum intermedium KACC 11952T and Stenotrophomonas nitritireducens KACC 10891T used in the antibacterial test were purchased from Korean Agricultural Culture Collection (KACC). The diameters of clear circular zones of samples 2 to 7 of FIG. 1 were measured by a paper disc diffusion method, and compared to that of gentamicin. […] Particularly, it can be ascertained that the activity of sample 2 (4-(3′,4′-dichlorophenylpiperazin-1-yl) amide betulonic acid) and the activity of sample 7 (4-(4′-trifluoromethylphenylpiperazin-1-yl) amide betulonic acid) are highest.

| Compound | Antibacterial zone of inhibition (mm) S. nitritireducens [1] [mm] | Antibacterial zone of inhibition (mm) O. intermedium [2] [mm] | Antibacterial zone of inhibition (mm) S. maltophila [3] [mm] | Antibacterial zone of inhibition (mm) O. anthropi [4] [mm] | also measured |
| --- | --- | --- | --- | --- | --- |
| 4-(4′-trifluoromethylphenylpiperazine-1-yl) amide betulonic acid [Compound 6 of FIG. 1] | 16 | 14 | 14 | 15 | – |
| C=C(C)[C@@H]1CC[C@]2(C(=O)N3CCN(c4ccc(F)cc4)CC3)CC[C@]3(C)C(CC[C@@H]4[C@@]5(C)CCC(=O)C(C)(C)C5CC[C@]43C)[C@@H]12 (stereo partly drawn) [Compound 1 of FIG. 1, 4-(4′-fluorophenylpiperazine-1-yl) amide betulonic acid] | 11 | – | – | – | growth inhibition effect (four kinds of bacteria): growth inhibition effect only to Stenotrophomonas nitritireducens; melting point: 151 to 152 °C |
| C=C(C)[C@@H]1CC[C@]2(C(=O)N3CCN(c4ccc(Cl)c(Cl)c4)CC3)CC[C@]3(C)C(CC[C@@H]4[C@@]5(C)CCC(=O)C(C)(C)C5CC[C@]43C)[C@@H]12 (stereo partly drawn) [Compound 2 of FIG. 1, 4-(3′,4′-dichlorophenylpiperazine-1-yl) amide betulonic acid] | 15 | – | – | – | activity (ranking among the samples) (four kinds of bacteria): highest; melting point: 182 to 183 °C; zone of inhibition at 1000 µg/mL ([2]; Brucella intermedia, KACC11952T, read-out: Antibacterial zone of inhibition (mm) O. intermedium): 14 mm; zone of inhibition at 1000 µg/mL ([3]; Stenotrophomonas maltophilia, KCTC1773T, read-out: Antibacterial zone of inhibition (mm) S. maltophila): 13 mm; zone of inhibition at 1000 µg/mL ([4]; Brucella anthropi, KCTC22833T, read-out: Antibacterial zone of inhibition (mm) O. anthropi): 15 mm |
| C=C(C)[C@@H]1CC[C@]2(C(=O)N3CCN(c4ccccn4)CC3)CC[C@]3(C)[C@H](CC[C@@H]4[C@@]5(C)CCC(=O)C(C)(C)[C@@H]5CC[C@]43C)[C@@H]12 [Compound 4 of FIG. 1, 4-(2-pyridylpiperazine-1-yl) amide betulonic acid] | – | 10 | 10 | – | – |
| C=C(C)C1CCC2(C(=O)N3CCN(c4ncccn4)CC3)CCC3(C)C(CCC4C5(C)CCC(=O)C(C)(C)C5CCC43C)C12 (stereo not drawn) [Compound 5 of FIG. 1, 4-(2-pyrimidylpiperazine-1-yl) amide betulonic acid] | 11 | 10 | 10 | 13 | – |
| C=C(C)[C@@H]1CC[C@]2(C(=O)N3CCN(c4ccc(C(F)(F)F)cc4)CC3)CC[C@]3(C)C(CC[C@@H]4[C@@]5(C)CCC(=O)C(C)(C)C5CC[C@]43C)[C@@H]12 (stereo partly drawn) [Compound 6 of FIG. 1, 4-(4′-trifluoromethylphenylpiperazine-1-yl) amide betulonic acid] | – | – | – | – | activity (ranking among the samples) (four kinds of bacteria): highest |
| gentamicin [reference compound] | 21 | 17 | 16 | 19 | – |
